Assay results as given in US8192962B2, “Processes for detecting toxic substances” (Daikin Industries, Ltd., priority 2001, dated 2012).

Tested on: Metabolism protein genes
Assay: DNA chip mRNA expression in yeast, metabolism protein genes (Table 7)
Type: cell-based, Saccharomyces cerevisiae S288C
In short: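 Ratios compare mRNA levels in stressed and control S. cerevisiae. Each toxicant was applied for two hours to log-phase cultures at 25° C. at a sub-lethal, growth-inhibiting level; fluorescent cDNA (Cy3- or Cy5-dUTP) was hybridized to a genome-wide yeast chip for over 12 h at 65° C.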

Oc1cc(Cl)c(Cl)cc1Cl [(6), 2,4,5-trichlorophenol]
The level of expressed mRNA in the presence of chemical substance/The level of expressed mRNA in the absence of chemical substance (yeast gene YKL035W): 1.2 | level of expressed mRNA in the presence/in the absence of chemical substance (yeast gene YKL060C): 1.3 | The level of expressed mRNA in the presence of chemical substance/The level of expressed mRNA in the absence of chemical substance (yeast gene YKL091C): 2.2 | The level of expressed mRNA in the presence of chemical substance/The level of expressed mRNA in the absence of chemical substance (yeast gene YKL104C): 0.9 | level of expressed mRNA in the presence/in the absence of chemical substance (yeast gene YKL148C): 0.5 | The level of expressed mRNA in the presence of chemical substance/The level of expressed mRNA in the absence of chemical substance (yeast gene YKL152C): 1.6 | level of expressed mRNA in the presence/in the absence of chemical substance (yeast gene YKL157W): 1.5 | The level of expressed mRNA in the presence of chemical substance/The level of expressed mRNA in the absence of chemical substance (yeast gene YKL213C): 1.0 | The level of expressed mRNA in the presence of chemical substance/The level of expressed mRNA in the absence of chemical substance (yeast gene YKL215C): 2.1 | The level of expressed mRNA in the presence of chemical substance/The level of expressed mRNA in the absence of chemical substance (yeast gene YKL218C): 3.6 | level of expressed mRNA in the presence/in the absence of chemical substance (yeast gene YKR034W): 0.9 | The level of expressed mRNA in the presence of chemical substance/The level of expressed mRNA in the absence of chemical substance (yeast gene YKR039W): 2.8 | The level of expressed mRNA in the presence of chemical substance/The level of expressed mRNA in the absence of chemical substance (yeast gene YLL058W): 1.4 | level of expressed mRNA in the presence/in the absence of chemical substance (yeast gene YLR006C): 0.9 | level of expressed mRNA in the presence/in the absence of chemical substance (yeast gene YLR044C): 1.5 | level of expressed mRNA in the presence/in the absence of chemical substance (yeast gene YLR056W): 1.2 | level of expressed mRNA in the presence/in the absence of chemical substance (yeast gene YLR058C): 0.9 | level of expressed mRNA in the presence/in the absence of chemical substance (yeast gene YLR081W): 0.9 | level of expressed mRNA in the presence/in the absence of chemical substance (yeast gene YLR089C): 1.5 | The level of expressed mRNA in the presence of chemical substance/The level of expressed mRNA in the absence of chemical substance (yeast gene YLR142W): 3.1 | The level of expressed mRNA in the presence of chemical substance/The level of expressed mRNA in the absence of chemical substance (yeast gene YLR180W): 1.2 | The level of expressed mRNA in the presence of chemical substance/The level of expressed mRNA in the absence of chemical substance (yeast gene YLR273C): 1.2 | level of expressed mRNA in the presence/in the absence of chemical substance (yeast gene YLR284C): 0.9 | The level of expressed mRNA in the presence of chemical substance/The level of expressed mRNA in the absence of chemical substance (yeast gene YLR299W): 0.9 | The level of expressed mRNA in the presence of chemical substance/The level of expressed mRNA in the absence of chemical substance (yeast gene YLR300W): 1.1 | level of expressed mRNA in the presence/in the absence of chemical substance (yeast gene YLR304C): 1.9 | The level of expressed mRNA in the presence of chemical substance/The level of expressed mRNA in the absence of chemical substance (yeast gene YLR307W): 1.2 | The level of expressed mRNA in the presence of chemical substance/The level of expressed mRNA in the absence of chemical substance (yeast gene YLR348C): 1.9 | level of expressed mRNA in the presence/in the absence of chemical substance (yeast gene YLR354C): 1.5 | level of expressed mRNA in the presence/in the absence of chemical substance (yeast gene YLR372W): 0.5 | level of expressed mRNA in the presence/in the absence of chemical substance (yeast gene YML022W): 0.8 | The level of expressed mRNA in the presence of chemical substance/The level of expressed mRNA in the absence of chemical substance (yeast gene YML054C): 1.8 | The level of expressed mRNA in the presence of chemical substance/The level of expressed mRNA in the absence of chemical substance (yeast gene YML070W): 2.2 | The level of expressed mRNA in the presence of chemical substance/The level of expressed mRNA in the absence of chemical substance (yeast gene YML100W): 2.8 | The level of expressed mRNA in the presence of chemical substance/The level of expressed mRNA in the absence of chemical substance (yeast gene YML110C): 2.6 | The level of expressed mRNA in the presence of chemical substance/The level of expressed mRNA in the absence of chemical substance (yeast gene YMR008C): 1.7 | level of expressed mRNA in the presence/in the absence of chemical substance (yeast gene YMR011W): 0.6 | level of expressed mRNA in the presence/in the absence of chemical substance (yeast gene YMR015C): 1.3 | The level of expressed mRNA in the presence of chemical substance/The level of expressed mRNA in the absence of chemical substance (yeast gene YMR020W): 1.6 | level of expressed mRNA in the presence/in the absence of chemical substance (yeast gene YMR083W): 1.8 | The level of expressed mRNA in the presence of chemical substance/The level of expressed mRNA in the absence of chemical substance (yeast gene YMR105C): 2.8 | The level of expressed mRNA in the presence of chemical substance/The level of expressed mRNA in the absence of chemical substance (yeast gene YMR189W): 1.9 | level of expressed mRNA in the presence/in the absence of chemical substance (yeast gene YMR205C): 1.2 | The level of expressed mRNA in the presence of chemical substance/The level of expressed mRNA in the absence of chemical substance (yeast gene YMR250W): 4.5 | level of expressed mRNA in the presence/in the absence of chemical substance (yeast gene YMR261C): 0.6 | The level of expressed mRNA in the presence of chemical substance/The level of expressed mRNA in the absence of chemical substance (yeast gene YMR271C): 4.2 | The level of expressed mRNA in the presence of chemical substance/The level of expressed mRNA in the absence of chemical substance (yeast gene YMR272C): 2.6 | The level of expressed mRNA in the presence of chemical substance/The level of expressed mRNA in the absence of chemical substance (yeast gene YMR296C): 0.4 | level of expressed mRNA in the presence/in the absence of chemical substance (yeast gene YMR323W): 0.4 | The level of expressed mRNA in the presence of chemical substance/The level of expressed mRNA in the absence of chemical substance (yeast gene YNL012W): 1.7 | level of expressed mRNA in the presence/in the absence of chemical substance (yeast gene YNL025C): 0.5 | The level of expressed mRNA in the presence of chemical substance/The level of expressed mRNA in the absence of chemical substance (yeast gene YNL037C): 2.8 | The level of expressed mRNA in the presence of chemical substance/The level of expressed mRNA in the absence of chemical substance (yeast gene YNL045W): 2.2 | The level of expressed mRNA in the presence of chemical substance/The level of expressed mRNA in the absence of chemical substance (yeast gene YNL104C): 0.8 | The level of expressed mRNA in the presence of chemical substance/The level of expressed mRNA in the absence of chemical substance (yeast gene YNL106C): 1.0 | The level of expressed mRNA in the presence of chemical substance/The level of expressed mRNA in the absence of chemical substance (yeast gene YNL169C): 1.4 | level of expressed mRNA in the presence/in the absence of chemical substance (yeast gene YNL192W): 0.6 | The level of expressed mRNA in the presence of chemical substance/The level of expressed mRNA in the absence of chemical substance (yeast gene YNL231C): 1.8 | The level of expressed mRNA in the presence of chemical substance/The level of expressed mRNA in the absence of chemical substance (yeast gene YNL322C): 1.1 | The level of expressed mRNA in the presence of chemical substance/The level of expressed mRNA in the absence of chemical substance (yeast gene YNL331C): 1.8 | The level of expressed mRNA in the presence of chemical substance/The level of expressed mRNA in the absence of chemical substance (yeast gene YNL332W): 1.1 | The level of expressed mRNA in the presence of chemical substance/The level of expressed mRNA in the absence of chemical substance (yeast gene YNR019W): 1.3 | The level of expressed mRNA in the presence of chemical substance/The level of expressed mRNA in the absence of chemical substance (yeast gene YNR033W): 1.6 | The level of expressed mRNA in the presence of chemical substance/The level of expressed mRNA in the absence of chemical substance (yeast gene YNR059W): 0.8 | The level of expressed mRNA in the presence of chemical substance/The level of expressed mRNA in the absence of chemical substance (yeast gene YOL058W): 0.8 | level of expressed mRNA in the presence/in the absence of chemical substance (yeast gene YOL086C): 1.7 | level of expressed mRNA in the presence/in the absence of chemical substance (yeast gene YOL108C): 0.9 | level of expressed mRNA in the presence/in the absence of chemical substance (yeast gene YOL116W): 0.7 | The level of expressed mRNA in the presence of chemical substance/The level of expressed mRNA in the absence of chemical substance (yeast gene YOL126C): 1.5 | The level of expressed mRNA in the presence of chemical substance/The level of expressed mRNA in the absence of chemical substance (yeast gene YOL143C): 3.5 | The level of expressed mRNA in the presence of chemical substance/The level of expressed mRNA in the absence of chemical substance (yeast gene YOL153C): 1.9 | level of expressed mRNA in the presence/in the absence of chemical substance (yeast gene YOL156W): 1.2 | The level of expressed mRNA in the presence of chemical substance/The level of expressed mRNA in the absence of chemical substance (yeast gene YOL165C): 1.7 | level of expressed mRNA in the presence/in the absence of chemical substance (yeast gene YOR002W): 1.1 | level of expressed mRNA in the presence/in the absence of chemical substance (yeast gene YOR085W): 0.6 | The level of expressed mRNA in the presence of chemical substance/The level of expressed mRNA in the absence of chemical substance (yeast gene YOR099W): 0.9 | level of expressed mRNA in the presence/in the absence of chemical substance (yeast gene YOR103C): 1.0 | level of expressed mRNA in the presence/in the absence of chemical substance (yeast gene YOR108W): 1.6 | level of expressed mRNA in the presence/in the absence of chemical substance (yeast gene YOR128C): 1.0 | The level of expressed mRNA in the presence of chemical substance/The level of expressed mRNA in the absence of chemical substance (yeast gene YOR130C): 1.6 | level of expressed mRNA in the presence/in the absence of chemical substance (yeast gene YOR142W): 1.6 | level of expressed mRNA in the presence/in the absence of chemical substance (yeast gene YOR176W): 0.9 | level of expressed mRNA in the presence/in the absence of chemical substance (yeast gene YOR178C): 2.7 | level of expressed mRNA in the presence/in the absence of chemical substance (yeast gene YOR251C): 0.9 | The level of expressed mRNA in the presence of chemical substance/The level of expressed mRNA in the absence of chemical substance (yeast gene YOR336W): 1.7 | The level of expressed mRNA in the presence of chemical substance/The level of expressed mRNA in the absence of chemical substance (yeast gene YOR347C): 0.9 | level of expressed mRNA in the presence/in the absence of chemical substance (yeast gene YOR348C): 0.7 | The level of expressed mRNA in the presence of chemical substance/The level of expressed mRNA in the absence of chemical substance (yeast gene YPL017C): 1.5 | level of expressed mRNA in the presence/in the absence of chemical substance (yeast gene YPL028W): 1.2 | level of expressed mRNA in the presence/in the absence of chemical substance (yeast gene YPL057C): 0.6 | level of expressed mRNA in the presence/in the absence of chemical substance (yeast gene YPL135W): 1.3 | level of expressed mRNA in the presence/in the absence of chemical substance (yeast gene YPL148C): 0.6 | level of expressed mRNA in the presence/in the absence of chemical substance (yeast gene YPR113W): 1.1 | The level of expressed mRNA in the presence of chemical substance/The level of expressed mRNA in the absence of chemical substance (yeast gene YPR160W): 4.5 | level of expressed mRNA in the presence/in the absence of chemical substance (yeast gene YPR165W): 1.8 | The level of expressed mRNA in the presence of chemical substance/The level of expressed mRNA in the absence of chemical substance (yeast gene YPR167C): 2.6 | level of expressed mRNA in the presence/in the absence of chemical substance (yeast gene YPR183W): 1.2
